Measurements from article PMC10353061 (ACS Pharmacology & Translational Science, 2023).

Tests used:
SW620 cells = assay: Inhibition of SW620 cells; format: cell-based; conditions: Homo sapiens, SW-620, in the combination 9 at constant 0.25 μM
HCC1806 cells = assay: Cell proliferation by live-cell imaging (IncuCyte), HCC1806 TNBC cells; format: cell-based; conditions: 40 μM, 72 h
Procedure: (§1) As TNBC is a highly heterogeneous subgroup, including breast cancers with different molecular and phenotypic traits,[37] effects of compounds 5–10 on cell proliferation were also tested in additional TNBC cell lines, i.e., HCC1806 and HCC1937. As inhibitors of HCC1806 TNBC cells, compounds 5–10 were evaluated in parallel with compounds 3, ICG-001, and iCRT3 (Figures 10 and S12–S19, Supporting Information); as inhibitors of the HCC1937 TNBC cells, 5–10 were compared with 3 and iCRT3 (Figures 10, S20, and S21). Effects on cell proliferation were evaluated as above for the MDA-MB-231 TNBC cells at the latest time point of observation of 72 h.
(§2) Figure 10 Inhibition of MDA-MB-231, HCC1806, and HCC1937 TNBC cell growth by compounds 5–10 and reference compounds 3, […], and iCRT3 at 40 μM. Cell growth inhibition was quantified using the IncuCyte cell-by-cell analysis software, by comparison with the growth of DMSO-treated cells at 72 h, set at 100% (mean ± SD, n = 3, one-way ANOVA, **p ≤ 0.01, ****p ≤ 0.0001).
(§3) Cell proliferation of breast cancer cell lines upon continuous treatment with select compounds was evaluated by the real-time quantitative live-cell imaging system. MDA-MB-231 (1500 cells/well), HCC1806 (2000 cells/well), and HCC1937 (3000 cells/well) were seeded in 96-well plates, treated with increasing doses of selected compounds and images (5 images/well) were acquired every 8 h for 3 days at 10× magnification in an IncuCyte SX5 live-content imaging system (Essen Bioscience) at 37 °C with 5% CO2. Images were analyzed using IncuCyte cell-by-cell analysis software to detect and quantify live cells (phase-contrast). The number of cells at each time point was quantified using IncuCyte cell-by-cell analysis software, and cell growth was evaluated as the normalized ratio between counted cells at each time point normalized to those counted at time 0. Graph drawing and statistical analyses were performed in GraphPad Prism according to the statistical tests described in the figure legends.

Fgf20 and Sal4 = assay: Wnt-target gene mRNA levels (qPCR) in LiCl-treated HCT116 cells; format: cell-based, human; conditions: HCT116, LiCl 50 mM, 24 h, 10 μM
Procedure: To this end, HCT116 cells were treated for 24 h with 50 mM LiCl and increasing concentrations (10–50–100 μM) of the two compounds.
HCT116 was treated with LiCl (50 mM) and 10 μM compound 9 or 10 for 24 h. Fgf20, Sall4 (Wnt-target genes) mRNA levels were measured by qPCR and normalized to the expression of β-actin mRNA. Results are expressed as fold change relative to the control sample and represent the mean ± SD of three independent experiments, each performed in triplicate. *p < 0.05, **p < 0.01, ***p < 0.001 as determined by ANOVA.

HCC1937 cells = assay: Cell proliferation by live-cell imaging (IncuCyte), HCC1937 TNBC cells; format: cell-based; conditions: 40 μM, 72 h
Procedure: as §1, §2, §3

## O=S(=O)(Nc1ccc(-c2ccccn2)cc1)c1ccc(Br)cc1 [Compound 9, 4-Bromo-N-(4-(pyridin-2-yl)phenyl)benzenesulfonamide]
SW620 cells
  EC50: 37 µM
HCC1806 cells
  effect on HCC1806 cell growth: less effective
Fgf20 and Sal4
  mRNA levels of Wnt-target genes Fgf20 and Sal4: strongly inhibited
HCC1937 cells
  effect on HCC1937 cell growth: less effective
